Measured values: patent US20230293519A1, “INTEGRIN INHIBITORS AND USES THEREOF IN COMBINATION WITH OTHER AGENTS” (Pliant Therapeutics, Inc., priority 2021, published 2023)

Columns and labels:
[1] = test system: Type I Collagen gene Col1a1 expression; test: Precision cut lung slices of mice under acute bleomycin exposure; type: cell-based, mouse; conditions: acute bleomycin injured lung slices
Procedure: Mice (C57BL/6) were administered 3 U/kg of bleomycin (Teva Pharmaceuticals; North Wales, PA) on day 0 via oropharyngeal aspiration while under anesthesia. On day 14, precision cut lung slices were obtained. Following euthanization, 2% low gelling temp agarose was injected into the mouse lungs via the trachea. […] The lobes were then subjected to precision slicing to obtain samples for culture using a microtome (Compresstome VF-300-0Z, Precisionary; Greenville, NC). Individual slices were distributed in a multiwell culture plate and cultured for 3 days under control (DMSO) and test compound conditions.

COL1A1 expression = test: PCLS from human IPF lung tissue, 7 days: COL1A1 expression; type: cell-based; conditions: Compound 5 200 nM, nintedanib 75 nM, pirfenidone 50 µM, 5-7 IPF lungs
Procedure: PCLS from 5-7 idopathic pulmonary fibrosis (IPF) lung tissue samples were cultured for seven days with one of: DMSO; Compound 5 at 200 nM; nintedanib at 75 nM; pirfenidone at 50 µm; a combination of Compound 5 at 200 nM and nintedanib at 75 nM; a combination of Compound 5 at 200 nM and pirfenidone at 50 µm; or an Alk5 inhibitor at 1 µm. […] FIG. 6D is a bar graph showing relative expression of COL1A1 in precision cut lung slices (PCLS) from idopathic pulmonary fibrosis (IPF) lung tissue upon exposure to Comopund 5, clinical standard of care compounds nintedanib (Nin) and pirfenidone (Pirf), and an ALK5 inhibitor, all versus DMSO control.
PCLS from a single IPF lung tissue sample were cultured for seven days with Compound 5 at concentrations of 200 pM, 2 nM, 60 nM, 200 nM, and 1 µM, along with 0.1% DMSO control and an Alk5 inhibitor at 1 µM. […] COL1A1 expression is also graphed for the PCLS in the presence of 0.1% DMSO control, and an Alk5 inhibitor at 1 µM.

[2] = test system: fibrosis-related gene expression in explanted human lung tissue from patients with idiopathic pulmonary fibrosis; test: nCounter Fibrosis Panel gene expression in precision cut lung slices from IPF explants; type: cell-based; conditions: IPF PCLS, 7 days, vs DMSO
Description: Fibrosis-related gene expression in explanted human lung tissue from patients with idiopathic pulmonary fibrosis was examined in order to determine what impact combining Compound 5 treatment with standard-of-care drugs nintedanib or pirfenidone, has on the expression of such genes.
Samples used for this analysis are a subset (n = 4 of 7) of the lungs previously reported on in Decaris et al., Respir Res (2021) 22:265 (FIGS. 6 A and B). Briefly, tissue samples from patients with IPF were acquired at the time of lung transplantation. Precision cut lung slices were generated from the explants and cultured for 7 days in the presence of inhibitors (Compound 5, nintedanib, pirfenidone) at clinically relevant concentrations or vehicle (DMSO). Treated slices were lysed in mRNA-compatible buffer for gene expression analysis. For this study, the lysate from n = 6 slices per treatment per lung were pooled for analysis using the nCounter Fibrosis Panel (Nanostring) on the nCounter Max analyzer (Nanostring). This commercially available panel of 770 genes includes genes related to initial tissue damage response, chronic inflammation, proliferation of pro-fibrotic cells, and tissue modification leading to fibrotic disease. Technical quality control and normalization of raw Nanostring mRNA count data was performed using an R framework developed by Bhattacharya et al. (Bhattacharya A. et al., Brief Bioinform. 2021 May 20;22(3):bbaa163). The R packages limma (see URL www.bioconductor.org/packages/release/bioc/html/limma.html) and voom (Law, C.W. et al., Genome Biol. 2014 Feb 3;15(2):R29) were used to detect differentially expressed genes. Benjamini-Hochberg False Discovery Rate (FDR = 5%) was used to adjust p-values for multiple comparisons.

lung Col1a1 expression = test: Precision cut lung slices of mice under chronic bleomycin exposure (vs pirfenidone and nintedanib); type: cell-based, mouse; conditions: slices cultured 7 days; nintedanib and pirfenidone at 10x therapeutic concentrations
Procedure: Mice (C57BL/6) were administered 3 U/kg of bleomycin (Teva Pharmaceuticals; North Wales, PA) on Day 0 and 1 U/kg of bleomycin on days 14, 28, 42 and 56 via oropharyngeal aspiration while under anesthesia. At day 70, 14 days following the final bleomycin insult, precision cut lung slices were obtained. Following euthanization, 2% low gelling temp agarose was injected into the mouse lungs via the trachea. […] The lobes were then subjected to precision slicing to obtain samples for culture using a microtome (Compresstome VF-300-0Z, Precisionary; Greenville, NC). Individual slices were distributed in a multiwell culture plate and cultured for 7 days under control (DMSO) and test compound conditions. The viability of the slices over the course of culturing was confirmed by WST-1 assay of mitochondrial activity.
During the culture period, slices in the control group were treated with DMSO and slices in the test group were treated with a DMSO solution of one of: compound 5; nintedanib; pirfenidone; a combination of nintedanib and compound 5; a combination of pirfenidone and compound 5; or the small molecule ALK5 inhibitor. Compound 5 was […] effective to equal or exceed its respective IC50 values at αvβ6 and αvβ1. The small molecule ALK5 inhibitor was analyzed at 10x its reported IC50 value. Nintendanib and pirfenidone were analyzed at concentrations 10x their reported therapeutic concentrations.

COC(=O)c1ccc2c(c1)NC(=O)/C2=C(\Nc1ccc(N(C)C(=O)CN2CCN(C)CC2)cc1)c1ccccc1 [nintedanib, 3-Z-[1-(4-(N-((4-methyl-piperazin-1-yl)-methylcarbonyl)-N-methyl-amino)-anilino)-1-phenyl-methylene]-6-methoxycarbonyl-2-indolinone]
fold increase in concentration over compound 5 needed to reduce lung slice Col1a1 expression by 50% [1]: 5.2 fold
reduction of COL1A1 expression (COL1A1 expression): did not significantly reduce
% Reduction of APOC2 expression [2]: 16.88%
% Reduction of CDH2 expression [2]: -9.99%
% Reduction of COL1A1 expression [2]: 27.60%
% Reduction of COL4A2 expression [2]: 31.55%
% Reduction of FAP expression [2]: 35.72%
% Reduction of FCGR3A/B expression [2]: 33.44%
% Reduction of ITGB3 expression [2]: 16.60%
% Reduction of LOX expression [2]: 40.76%
% Reduction of LOXL2 expression [2]: 15.99%
% Reduction of NID1 expression [2]: 26.59%
% Reduction of PDGFRB expression [2]: 42.09%
% Reduction of POSTN expression [2]: 38.94%
% Reduction of SERPINE1 expression [2]: 9.75%
% Reduction of SERPINH1 expression [2]: 15.02%
% Reduction of SPP1 expression [2]: 59.73%
% Reduction of TGFB1 expression [2]: 21.04%
% Reduction of THBS2 expression [2]: 25.58%
logFC of ACTA2 expression [2]: 0.6841
logFC of ACVRL1 expression [2]: -1.329
logFC of ADH1B expression [2]: 0.8975
logFC of ADH1C expression [2]: 0.9337
logFC of ALDH7A1 expression [2]: 0.7402
logFC of AMOTL2 expression [2]: 0.5767
logFC of CCL19 expression [2]: 0.789
logFC of CD34 expression [2]: -1.516
logFC of CDH5 expression [2]: -2.328
logFC of CETP expression [2]: -1.732
logFC of CFTR expression [2]: 0.8907
logFC of COL6A5 expression [2]: 0.6309
logFC of COL10A1 expression [2]: -1.169
logFC of COX4I2 expression [2]: -2.07
logFC of CXCL10 expression [2]: -1.71
logFC of CXCR4 expression [2]: -1.727
logFC of CYP2J2 expression [2]: 1.025
logFC of DLL4 expression [2]: -2.786
logFC of ELN expression [2]: 0.8689
logFC of FLT1 expression [2]: -3.369
logFC of FLT4 expression [2]: -1.476
logFC of FST expression [2]: 1.092
logFC of GPX2 expression [2]: 1.178
logFC of IGF1 expression [2]: 0.632
logFC of KLF5 expression [2]: 0.8124
logFC of LAMA3 expression [2]: 0.6871
logFC of MASP1 expression [2]: 0.8164
logFC of MET expression [2]: 0.7131
logFC of MMP8 expression [2]: -1.053
logFC of MMP9 expression [2]: -1.1396
logFC of MMP11 expression [2]: -1.002
logFC of MMP12 expression [2]: -1.411
logFC of NOS3 expression [2]: -1.356
logFC of NOTCH4 expression [2]: -1.605
logFC of OCLN expression [2]: 0.6026
logFC of PECAM1 expression [2]: -1.967
logFC of PYGM expression [2]: 0.6237
logFC of TEK expression [2]: -1.206
logFC of TPSAB1/B2 expression [2]: -1.195
logFC of WWC1 expression [2]: 0.7518
lung Col1a1 expression vs DMSO control (lung Col1a1 expression): slight increase

Cc1ccc(=O)n(-c2ccccc2)c1 [pirfenidone, 5-methyl-1phenyl-2-1(H)-pyridone]
fold increase in concentration over compound 5 needed to reduce lung slice Col1a1 expression by 50% [1]: 3,940 fold
reduction of COL1A1 expression (COL1A1 expression): did not significantly reduce
% Reduction of CDH2 expression [2]: -7.12%
% Reduction of COL1A1 expression [2]: 8.58%
% Reduction of COL5A3 expression [2]: 23.95%
% Reduction of ITGAS expression [2]: 26.21%
% Reduction of THBS2 expression [2]: 21.20%
logFC of ACACA expression [2]: 0.4392
logFC of ACVRL1 expression [2]: -0.7278
logFC of ALDH7A1 expression [2]: 0.6119
logFC of C6 expression [2]: 1.475
logFC of CD34 expression [2]: -0.8356
logFC of CDH5 expression [2]: -1.0568
logFC of CFTR expression [2]: 1.189
logFC of COL4A1 expression [2]: -0.7024
logFC of COL7A1 expression [2]: 0.6703
logFC of COL14A1 expression [2]: -0.7785
logFC of COX4I2 expression [2]: -0.7471
logFC of CXCL2 expression [2]: 0.778
logFC of CXCL12 expression [2]: -0.5918
logFC of CXCR4 expression [2]: -0.8852
logFC of EGFR expression [2]: 0.4764
logFC of F11R expression [2]: 0.5803
logFC of FGF19 expression [2]: -1.14
logFC of GAS1 expression [2]: -0.6419
logFC of GPC4 expression [2]: 0.4613
logFC of GREM1 expression [2]: -0.7447
logFC of HADH expression [2]: 0.4377
logFC of HAVCR1 expression [2]: -0.7313
logFC of ICAM1 expression [2]: 0.4322
logFC of IFNG expression [2]: -0.5853
logFC of KLF5 expression [2]: 0.7343
logFC of KNG1 expression [2]: -1.1
logFC of LYN expression [2]: 0.4785
logFC of MET expression [2]: 1.096
logFC of MMP7 expression [2]: 1.413
logFC of MMRN1 expression [2]: -0.9784
logFC of NOTCH4 expression [2]: -0.7164
logFC of OCLN expression [2]: 0.5956
logFC of PDGFRB expression [2]: -0.7514
logFC of PECAM1 expression [2]: -0.9354
logFC of PSENEN expression [2]: 0.4784
logFC of PTGS2 expression [2]: 0.9466
logFC of RELN expression [2]: -0.8283
logFC of SAA1 expression [2]: 1.653
logFC of TEK expression [2]: -0.8124
logFC of WWC1 expression [2]: 0.8127
lung Col1a1 expression vs DMSO control (lung Col1a1 expression): slight increase
